Results taken from the NIST ThermoML archive (doi:10.1021/je034087q).
Numbers after ± are expanded uncertainties.

Test: xn = mol fraction of the nth substance listed

CC(C)=O [acetone] + O=C=O
Details | mass density [kg/m3]
326.65 K, 9200 kPa, Fluid (supercritical or subcritical phases), x2 = 0.933 | 535 ± 3
326.65 K, 9240 kPa, Fluid (supercritical or subcritical phases), x2 = 0.933 | 540 ± 3
326.65 K, 9270 kPa, Fluid (supercritical or subcritical phases), x2 = 0.933 | 544 ± 3
326.65 K, 9310 kPa, Fluid (supercritical or subcritical phases), x2 = 0.933 | 549 ± 3
326.65 K, 9340 kPa, Fluid (supercritical or subcritical phases), x2 = 0.933 | 553 ± 3
326.65 K, 9370 kPa, Fluid (supercritical or subcritical phases), x2 = 0.933 | 559 ± 4
326.65 K, 9410 kPa, Fluid (supercritical or subcritical phases), x2 = 0.933 | 563 ± 4
326.65 K, 9460 kPa, Fluid (supercritical or subcritical phases), x2 = 0.933 | 569 ± 4
326.65 K, 9500 kPa, Fluid (supercritical or subcritical phases), x2 = 0.933 | 574 ± 4
326.65 K, 9550 kPa, Fluid (supercritical or subcritical phases), x2 = 0.933 | 579 ± 4
326.65 K, 9600 kPa, Fluid (supercritical or subcritical phases), x2 = 0.933 | 584 ± 4
326.65 K, 9660 kPa, Fluid (supercritical or subcritical phases), x2 = 0.933 | 590 ± 4
326.65 K, 9710 kPa, Fluid (supercritical or subcritical phases), x2 = 0.933 | 594 ± 4
326.65 K, 9790 kPa, Fluid (supercritical or subcritical phases), x2 = 0.933 | 601 ± 4
326.65 K, 9850 kPa, Fluid (supercritical or subcritical phases), x2 = 0.933 | 606 ± 4
326.65 K, 9930 kPa, Fluid (supercritical or subcritical phases), x2 = 0.933 | 612 ± 4
326.65 K, 10010 kPa, Fluid (supercritical or subcritical phases), x2 = 0.933 | 617 ± 4
326.65 K, 10110 kPa, Fluid (supercritical or subcritical phases), x2 = 0.933 | 625 ± 4
326.65 K, 10210 kPa, Fluid (supercritical or subcritical phases), x2 = 0.933 | 630 ± 4
326.65 K, 10340 kPa, Fluid (supercritical or subcritical phases), x2 = 0.933 | 637 ± 4
326.65 K, 10470 kPa, Fluid (supercritical or subcritical phases), x2 = 0.933 | 643 ± 4
326.65 K, 10590 kPa, Fluid (supercritical or subcritical phases), x2 = 0.933 | 650 ± 4
326.65 K, 10750 kPa, Fluid (supercritical or subcritical phases), x2 = 0.933 | 656 ± 4
326.65 K, 10920 kPa, Fluid (supercritical or subcritical phases), x2 = 0.933 | 663 ± 4
326.65 K, 11100 kPa, Fluid (supercritical or subcritical phases), x2 = 0.933 | 670 ± 4
326.65 K, 11320 kPa, Fluid (supercritical or subcritical phases), x2 = 0.933 | 677 ± 4
326.65 K, 11540 kPa, Fluid (supercritical or subcritical phases), x2 = 0.933 | 684 ± 4
326.65 K, 11800 kPa, Fluid (supercritical or subcritical phases), x2 = 0.933 | 691 ± 4
326.65 K, 12060 kPa, Fluid (supercritical or subcritical phases), x2 = 0.933 | 699 ± 4
326.65 K, 12380 kPa, Fluid (supercritical or subcritical phases), x2 = 0.933 | 708 ± 4
326.65 K, 12730 kPa, Fluid (supercritical or subcritical phases), x2 = 0.933 | 715 ± 4
326.65 K, 13140 kPa, Fluid (supercritical or subcritical phases), x2 = 0.933 | 723 ± 5
326.65 K, 13580 kPa, Fluid (supercritical or subcritical phases), x2 = 0.933 | 731 ± 5
326.65 K, 14060 kPa, Fluid (supercritical or subcritical phases), x2 = 0.933 | 741 ± 5
326.65 K, 14600 kPa, Fluid (supercritical or subcritical phases), x2 = 0.933 | 749 ± 5
328.15 K, 9370 kPa, Fluid (supercritical or subcritical phases), x2 = 0.902 | 632 ± 4
328.15 K, 9490 kPa, Fluid (supercritical or subcritical phases), x2 = 0.902 | 640 ± 4
328.15 K, 9620 kPa, Fluid (supercritical or subcritical phases), x2 = 0.902 | 645 ± 4
328.15 K, 9720 kPa, Fluid (supercritical or subcritical phases), x2 = 0.902 | 650 ± 4
328.15 K, 9780 kPa, Fluid (supercritical or subcritical phases), x2 = 0.902 | 654 ± 4
328.15 K, 9910 kPa, Fluid (supercritical or subcritical phases), x2 = 0.902 | 657 ± 4
328.15 K, 10020 kPa, Fluid (supercritical or subcritical phases), x2 = 0.902 | 662 ± 4
328.15 K, 10150 kPa, Fluid (supercritical or subcritical phases), x2 = 0.902 | 669 ± 4
328.15 K, 10330 kPa, Fluid (supercritical or subcritical phases), x2 = 0.902 | 673 ± 4
328.15 K, 10480 kPa, Fluid (supercritical or subcritical phases), x2 = 0.902 | 679 ± 4
328.15 K, 10610 kPa, Fluid (supercritical or subcritical phases), x2 = 0.902 | 684 ± 4
328.15 K, 10820 kPa, Fluid (supercritical or subcritical phases), x2 = 0.902 | 688 ± 4
328.15 K, 11020 kPa, Fluid (supercritical or subcritical phases), x2 = 0.902 | 695 ± 4
328.15 K, 11200 kPa, Fluid (supercritical or subcritical phases), x2 = 0.902 | 700 ± 4
328.15 K, 11440 kPa, Fluid (supercritical or subcritical phases), x2 = 0.902 | 705 ± 4
328.15 K, 11720 kPa, Fluid (supercritical or subcritical phases), x2 = 0.902 | 711 ± 4
328.15 K, 11920 kPa, Fluid (supercritical or subcritical phases), x2 = 0.902 | 716 ± 4
328.15 K, 12230 kPa, Fluid (supercritical or subcritical phases), x2 = 0.902 | 721 ± 5
328.15 K, 12460 kPa, Fluid (supercritical or subcritical phases), x2 = 0.902 | 727 ± 5
328.15 K, 12780 kPa, Fluid (supercritical or subcritical phases), x2 = 0.902 | 733 ± 5
328.15 K, 12970 kPa, Fluid (supercritical or subcritical phases), x2 = 0.902 | 737 ± 5
328.15 K, 13310 kPa, Fluid (supercritical or subcritical phases), x2 = 0.902 | 739 ± 5
328.15 K, 13640 kPa, Fluid (supercritical or subcritical phases), x2 = 0.902 | 748 ± 5
328.15 K, 13900 kPa, Fluid (supercritical or subcritical phases), x2 = 0.902 | 748 ± 5
328.15 K, 14180 kPa, Fluid (supercritical or subcritical phases), x2 = 0.902 | 754 ± 5
328.15 K, 14600 kPa, Fluid (supercritical or subcritical phases), x2 = 0.902 | 758 ± 5
328.15 K, 14820 kPa, Fluid (supercritical or subcritical phases), x2 = 0.902 | 761 ± 5
328.15 K, Liquid, Other PVT measurement, x2 = 0.902 | 626 ± 2
333.15 K, 9750 kPa, Fluid (supercritical or subcritical phases), x2 = 0.902 | 573 ± 4
333.15 K, 9830 kPa, Fluid (supercritical or subcritical phases), x2 = 0.902 | 579 ± 4
333.15 K, 9880 kPa, Fluid (supercritical or subcritical phases), x2 = 0.902 | 582 ± 4
333.15 K, 9920 kPa, Fluid (supercritical or subcritical phases), x2 = 0.902 | 585 ± 4
333.15 K, 9990 kPa, Fluid (supercritical or subcritical phases), x2 = 0.902 | 590 ± 4
333.15 K, 10050 kPa, Fluid (supercritical or subcritical phases), x2 = 0.902 | 594 ± 4
333.15 K, 10100 kPa, Fluid (supercritical or subcritical phases), x2 = 0.902 | 599 ± 4
333.15 K, 10180 kPa, Fluid (supercritical or subcritical phases), x2 = 0.902 | 603 ± 4
333.15 K, 10250 kPa, Fluid (supercritical or subcritical phases), x2 = 0.902 | 607 ± 4
333.15 K, 10320 kPa, Fluid (supercritical or subcritical phases), x2 = 0.902 | 610 ± 4
333.15 K, 10380 kPa, Fluid (supercritical or subcritical phases), x2 = 0.902 | 614 ± 4
333.15 K, 10500 kPa, Fluid (supercritical or subcritical phases), x2 = 0.902 | 619 ± 4
333.15 K, 10610 kPa, Fluid (supercritical or subcritical phases), x2 = 0.902 | 626 ± 4
333.15 K, 10750 kPa, Fluid (supercritical or subcritical phases), x2 = 0.902 | 631 ± 4
333.15 K, 10850 kPa, Fluid (supercritical or subcritical phases), x2 = 0.902 | 636 ± 4
333.15 K, 10920 kPa, Fluid (supercritical or subcritical phases), x2 = 0.902 | 641 ± 4
333.15 K, 11080 kPa, Fluid (supercritical or subcritical phases), x2 = 0.902 | 646 ± 4
333.15 K, 11170 kPa, Fluid (supercritical or subcritical phases), x2 = 0.902 | 650 ± 4
333.15 K, 11280 kPa, Fluid (supercritical or subcritical phases), x2 = 0.902 | 654 ± 4
333.15 K, 11490 kPa, Fluid (supercritical or subcritical phases), x2 = 0.902 | 660 ± 4
333.15 K, 11690 kPa, Fluid (supercritical or subcritical phases), x2 = 0.902 | 666 ± 4
333.15 K, 11820 kPa, Fluid (supercritical or subcritical phases), x2 = 0.902 | 671 ± 4
333.15 K, 12000 kPa, Fluid (supercritical or subcritical phases), x2 = 0.902 | 676 ± 4
333.15 K, 12230 kPa, Fluid (supercritical or subcritical phases), x2 = 0.902 | 682 ± 4
333.15 K, 12390 kPa, Fluid (supercritical or subcritical phases), x2 = 0.902 | 687 ± 4
333.15 K, 12560 kPa, Fluid (supercritical or subcritical phases), x2 = 0.902 | 690 ± 4
333.15 K, 12840 kPa, Fluid (supercritical or subcritical phases), x2 = 0.902 | 697 ± 4
333.15 K, 13010 kPa, Fluid (supercritical or subcritical phases), x2 = 0.902 | 700 ± 4
333.15 K, 13280 kPa, Fluid (supercritical or subcritical phases), x2 = 0.902 | 705 ± 4
333.15 K, 13630 kPa, Fluid (supercritical or subcritical phases), x2 = 0.902 | 711 ± 4
333.15 K, 13800 kPa, Fluid (supercritical or subcritical phases), x2 = 0.902 | 716 ± 4
333.15 K, 13980 kPa, Fluid (supercritical or subcritical phases), x2 = 0.902 | 719 ± 4
333.15 K, 14280 kPa, Fluid (supercritical or subcritical phases), x2 = 0.902 | 723 ± 5
333.15 K, 14460 kPa, Fluid (supercritical or subcritical phases), x2 = 0.902 | 726 ± 5
333.15 K, 14830 kPa, Fluid (supercritical or subcritical phases), x2 = 0.902 | 733 ± 5
333.15 K, Liquid, Other PVT measurement, x2 = 0.902 | 570 ± 2
335.15 K, 9800 kPa, Fluid (supercritical or subcritical phases), x2 = 0.909 | 532 ± 3
335.15 K, 9820 kPa, Fluid (supercritical or subcritical phases), x2 = 0.909 | 535 ± 3
335.15 K, 9860 kPa, Fluid (supercritical or subcritical phases), x2 = 0.909 | 539 ± 3
335.15 K, 9900 kPa, Fluid (supercritical or subcritical phases), x2 = 0.909 | 543 ± 3
335.15 K, 9940 kPa, Fluid (supercritical or subcritical phases), x2 = 0.909 | 548 ± 3
335.15 K, 10000 kPa, Fluid (supercritical or subcritical phases), x2 = 0.909 | 551 ± 3
335.15 K, 10050 kPa, Fluid (supercritical or subcritical phases), x2 = 0.909 | 558 ± 4
335.15 K, 10100 kPa, Fluid (supercritical or subcritical phases), x2 = 0.909 | 562 ± 4
335.15 K, 10160 kPa, Fluid (supercritical or subcritical phases), x2 = 0.909 | 567 ± 4
335.15 K, 10220 kPa, Fluid (supercritical or subcritical phases), x2 = 0.909 | 572 ± 4
335.15 K, 10280 kPa, Fluid (supercritical or subcritical phases), x2 = 0.909 | 578 ± 4
